Read-outs that look alike come from different tables or passages of the source.
Target: CYP2D6 (Homo sapiens, UniProt P10635)
Test: In vitro inhibition of human cytochrome P450 enzymes (fluorometric, 3-cyano-7-ethoxycoumarin substrate)
Experimental: In vitro Inhibition of Human Cytochrome P450 Enzymes
Solution A: NADPH-Regenerating System
To a glass tube on ice were added sequentially: 2% aqueous solution of sodium bicarbonate (10 mL) in NADP^+ (17 mg), glucose-6-phosphate (78 mg) and glucose-6-phosphate dehydrogenase (60 units).
To a glass tube on ice were added sequentially: 0.5 M KH2PO4 (pH 7.4, 2.4 mL), water (9 mL), CYP2D6 (480 μL of 1 picomol/microliter), and 3-cyano-7-ethoxycoumarin (5 mM in 2% acetonitrile-water, 120 microliter).
Solution A was transferred to a 96-well black plate (80 microliter per well), followed by various concentrations of a solution of N-methyl-1-[3,4-methylenedioxyphenyl]-2-aminopropane in 20% acetonitrile-water (20 microliter per well). The reaction was initiated by adding 100 microliter of solution B to each well of the 96-well plate. The plate was incubated for 30 minutes at 37° C. in the dark. The reaction was stopped by adding 75 microliter of stop buffer (4:1 acetonitrile-0.5 M Tris base) to each well, and the end point was measured in a fluorometer plate reader at λex=409 nm and λem=460 nm.

Chain of CYP2D6 (P10635 whole entry): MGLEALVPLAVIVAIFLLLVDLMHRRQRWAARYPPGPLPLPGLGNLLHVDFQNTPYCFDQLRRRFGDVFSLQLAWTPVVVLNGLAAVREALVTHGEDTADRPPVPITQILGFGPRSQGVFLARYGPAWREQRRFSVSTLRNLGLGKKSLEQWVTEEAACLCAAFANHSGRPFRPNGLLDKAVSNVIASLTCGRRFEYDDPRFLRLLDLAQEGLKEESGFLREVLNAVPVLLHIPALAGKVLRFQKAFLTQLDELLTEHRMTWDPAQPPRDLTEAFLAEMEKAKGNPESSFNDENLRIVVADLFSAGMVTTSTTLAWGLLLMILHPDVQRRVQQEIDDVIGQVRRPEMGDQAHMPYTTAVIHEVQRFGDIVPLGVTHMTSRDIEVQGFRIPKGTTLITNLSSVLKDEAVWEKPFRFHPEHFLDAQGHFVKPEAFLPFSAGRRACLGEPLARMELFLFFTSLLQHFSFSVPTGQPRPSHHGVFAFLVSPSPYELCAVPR

Compound	IC50	IC50 (read-out: IC50 (inhibition concentration of CYP2D6), CYP2D6, 3-cyano-7-ethoxycoumarin substrate, 30 minutes at 37° C., fluorescence λex=409 nm, λem=460 nm)
[2H]C1([2H])Oc2ccc(CC(C)NC)cc2O1 (single isomer, unassigned) [example 5, d2-N-methyl-1-(3,4-methylenedioxyphenyl)-2-aminopropane]	8 µM	–
[2H]C(c1ccc2c(c1)OC([2H])([2H])O2)C([2H])(C)NC([2H])([2H])[2H] (single isomer, unassigned) [example 9, d7-N-methyl-1-(3,4-methylenedioxyphenyl)-2-aminopropane]	30 µM	–
CNC(C)Cc1ccc2c(c1)OCO2 (centres unmarked) [N-methyl-1-[3,4-methylenedioxyphenyl]-2-aminopropane, reference compound]	3 µM	–
N[C@@H]1C[C@H]1c1ccccc1 (racemic) [Tranylcypromine, reference compound]	–	2.4 µM
[2H]C([2H])([2H])NC(C)Cc1ccc2c(c1)OC([2H])([2H])O2 (single isomer, unassigned) [example 6, d5-N-methyl-1-(3,4-methylenedioxyphenyl)-2-aminopropane]	8 µM	–

— US20080045588A1, “Preparation and utility of substituted amphetamines” (Auspex Pharmaceuticals, Inc., priority 2006, published 2008)
